Test results published in ChEMBL document CHEMBL1201862, “PubChem BioAssay data set” (2004).
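How tested: cells in 96-well plates exposed to compound for 48 hours at five concentrations. GI50 = concentration required for 50% inhibition of growth.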 Active and inactive are the calls of the source. Cut-off read from the data, not from the text of the source: active = GI50 up to about 1.1 µM and inactive = higher.

How the values were obtained:
Test in all cases: NCI anticancer screen, dose series, 48 h
[1] = test system: A549
[2] = test system: ACHN
[3] = test system: DMS-114
[4] = test system: DMS-273
[5] = test system: EKVX
[6] = test system: HCC 2998
[7] = test system: HL-60
[8] = test system: NCI-H23
[9] = test system: SNB-19
[10] = test system: SR
[11] = test system: SW-620
[12] = test system: TK-10
[13] = test system: UO-31
[14] = test system: XF498
[15] = test system: DLD-1
[16] = test system: BT-549
[17] = test system: DU-145
[18] = test system: MDA-MB-231
[19] = test system: MDA-MB-435
[20] = test system: PC-3

Measured: GI50

CCCCc1c2c(nc3c1CCC/C3=C\c1ccccc1)C(=O)CCC2
inactive: [1] 25.6 µM | [2] 25.7 µM | [3] 20.7 µM | [4] 26.1 µM | [5] 19.1 µM | [6] 20.3 µM | [7] 22.2 µM | [8] 24.2 µM | [9] 20.1 µM | [10] 7.24 µM | [11] 22 µM | [12] 24.5 µM | [13] 24.5 µM | [14] 12.1 µM

Cc1cc2c(C)nn(Cc3ccc(Cl)cc3)c2c(C#N)c1C
inactive: [1] > 100 µM | [2] > 100 µM | [4] > 100 µM | [5] > 100 µM | [6] > 100 µM | [7] > 100 µM | [8] > 100 µM | [9] 63.5 µM | [10] > 100 µM | [11] > 100 µM | [12] > 100 µM | [13] > 100 µM | [14] 39.1 µM

c1cncc(CSc2nc3ccccc3nc2-c2cccs2)c1
inactive: [1] 53.6 µM | [2] 36.9 µM | [15] > 100 µM | [4] > 100 µM | [5] 98.4 µM | [6] 86.1 µM | [7] 13 µM | [8] > 100 µM | [9] 77.6 µM | [10] 40.9 µM | [11] 91.4 µM | [12] > 100 µM | [13] 36.4 µM | [14] 35.3 µM

COc1cc(-c2cc(=O)c3ccccc3o2)ccc1N
inactive: [1] 52.1 µM | [2] 47.3 µM | [3] 63.5 µM | [4] 50.2 µM | [5] 12.8 µM | [6] > 100 µM | [7] 16.6 µM | [8] 33.8 µM | [9] 43.4 µM | [11] 92.7 µM | [12] > 100 µM | [13] 18.1 µM | [14] 24 µM

N#CC(C(=O)C(=O)Nc1ccccc1)c1ccccc1 (configuration not stated)
inactive: [1] > 100 µM | [2] > 100 µM | [15] > 100 µM | [4] > 100 µM | [5] > 100 µM | [7] > 100 µM | [8] > 100 µM | [9] > 100 µM | [10] > 100 µM | [11] > 100 µM | [12] > 100 µM | [13] > 100 µM | [14] > 100 µM

N#CC(Cl)CS(=O)(=O)c1ccccc1 (configuration not stated)
inactive: [1] 20.1 µM | [2] 4.41 µM | [16] 16.7 µM | [15] 1.93 µM | [3] 4.11 µM | [17] 17.5 µM | [5] 18.6 µM | [6] 15.8 µM | [7] 1.53 µM | [18] 19.7 µM | [19] 17.1 µM | [8] 16.3 µM | [20] 17.5 µM | [9] 18.9 µM | [10] 1.8 µM | [11] 1.68 µM | [12] 3.7 µM | [13] 19.1 µM | [14] 2.62 µM

CCOC(=O)C1=C(C)NC2=C(C(=O)N(c3ccccc3)C2c2ccccc2)C1c1ccccc1 (configuration not stated)
inactive: [1] 17.8 µM | [2] 14.1 µM | [15] 16.5 µM | [3] 16.7 µM | [5] 17.9 µM | [6] 17.7 µM | [7] 26.1 µM | [8] 17.2 µM | [10] 16.9 µM | [11] 19.8 µM | [12] 18.9 µM | [13] 19.8 µM | [14] 18.1 µM

Cc1nn(-c2ccccc2)c(-c2ccccc2[N+](=O)[O-])c1CC#N
inactive: [1] > 100 µM | [2] > 100 µM | [3] 98.6 µM | [4] > 100 µM | [5] > 100 µM | [6] > 100 µM | [7] 69.5 µM | [8] 87.7 µM | [9] > 100 µM | [11] > 10 µM | [12] > 100 µM | [13] 82.2 µM | [14] 21.5 µM
